# Reference: patent US10544095B2 (Pfizer Inc., priority 2015, dated 2020)
# Target: hTDO2 in human glioblastoma A172 cells (Homo sapiens (Human), UniProt P48775)
# Experiment: Cellular assay for TDO2 activity determination in A172 cells
# Assay type: cell-based
# Settings: overnight incubation, kynurenine absorbance at 480 nm
# Description: The compounds of formula I inhibit the activity of human TDO2 in cells that constitutively express TDO2, such as A172 cells. A172 is a cell line derived from human brain glioblastoma cells. The cells are available from the American Type Culture Collection (ATCC®) as CRL-1620™.
# The assay (adapted from Pilotte L et al., Proc Natl Acad Sci USA, 2012, 109(7), 2497-502) was performed in 96-well flat bottom plates seeded with human glioblastoma A172 cells, naturally expressing hTDO2 (prepared as described in Tilman et al., Mol Cancer, 2007, 17(6), 80), at a concentration of 1.25×10^4 cells/well in a final volume of 200 μL. To determine TDO, the cells were incubated overnight at 37° C. at 5% CO2 in IMDM (Invitrogen) supplemented with 2% FBS and 2% penicillin/streptomycin in the presence of the compounds of the present invention, at different concentrations.
# The plates were then centrifuged 5 min at 1000 rpm, and 100 μL of the supernatant were collected in a conical plate, 30 μL of TCA 30% were added and a further centrifuged at 3000×g for 10 minutes. 100 μL of the supernatant were collected in a flat bottomed plate and 100 μL of 2% (w/v) 4-(dimethylamino)-benzaldehyde in acetic acid and incubated for 5 min at room temperature. Kynurenine concentrations were determined by measuring the absorbance at 480 nm. A standard curve was made with pure kynurenine. The TDO activity was measured as described above using ten serial concentrations of the compounds of the present invention. Data were fitted using the Prism™ software (GraphPad Software, Inc.) using standard parameters.
# hTDO2 in human glioblastoma A172 cells, sequence (P48775 whole entry): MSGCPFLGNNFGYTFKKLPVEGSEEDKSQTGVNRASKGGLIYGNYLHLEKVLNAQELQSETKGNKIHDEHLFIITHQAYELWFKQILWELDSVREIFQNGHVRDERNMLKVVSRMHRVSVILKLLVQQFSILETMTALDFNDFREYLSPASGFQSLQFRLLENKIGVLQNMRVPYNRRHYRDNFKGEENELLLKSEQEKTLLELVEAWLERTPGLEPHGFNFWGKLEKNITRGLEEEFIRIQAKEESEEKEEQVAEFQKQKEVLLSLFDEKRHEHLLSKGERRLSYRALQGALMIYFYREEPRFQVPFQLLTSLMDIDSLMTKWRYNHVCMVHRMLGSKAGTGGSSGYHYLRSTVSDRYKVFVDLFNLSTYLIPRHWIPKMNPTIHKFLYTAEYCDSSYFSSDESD
row,SMILES,IC50
1,"O=S(=O)(c1ccc(-c2c[nH]c3cc(F)ccc23)cc1)N1C[C@@H](F)C[C@H]1CO [Example 123, ((2S,4S)-4-fluoro-1-((4-(6-fluoro-1H-indol-3-yl)phenyl)sulfonyl)pyrrolidin-2-yl)methanol]",138 nM
2,"N[C@H]1CN(C(=O)CCNS(=O)(=O)c2ccc(-c3c[nH]c4cc(F)ccc34)cc2)C[C@@H]1F [Example 105, (−)-N-(3-((3S,4S)-3-amino-4-fluoropyrrolidin-1-yl)-3-oxopropyl)-4-(6-fluoro-1H-indol-3-yl)benzenesulfonamide]",220 nM
3,"Cn1nccc1NS(=O)(=O)c1ccc(-c2c[nH]c3cc(F)ccc23)cc1 [Example 91, 4-(6-fluoro-1H-indol-3-yl)-N-(1-methyl-1H-pyrazol-5-yl)benzenesulfonamide]",1800 nM
4,"Cc1nnc(CNS(=O)(=O)c2ccc(-c3c[nH]c4cc(F)ccc34)cc2)o1 [Example 89, 4-(6-fluoro-1H-indol-3-yl)-N-((5-methyl-1,3,4-oxadiazol-2-yl)methyl) benzenesulfonamide]",200 nM
5,"O=S(=O)(c1ccc(-c2c[nH]c3cc(F)ccc23)cc1)N1C[C@H](F)C[C@@H]1CO [Example 125, ((2R,4R)-4-fluoro-1-((4-(6-fluoro-1H-indol-3-yl)phenyl)sulfonyl)pyrrolidin-2-yl)methanol]",97 nM
6,"CS(=O)(=O)c1cccc(-c2c[nH]c3cc(F)ccc23)c1 [Example 31, 6-fluoro-3-(3-(methylsulfonyl)phenyl)-1H-indole]",740 nM
7,"CN(C)C(=O)Cc1cc(-c2c[nH]c3cc(F)ccc23)ccc1S(N)(=O)=O [Example 138, 2-(5-(6-fluoro-1H-indol-3-yl)-2-sulfamoylphenyl)-N,N-dimethylacetamide]",3160 nM
8,"CN(CC(O)c1ncc[nH]1)S(=O)(=O)c1ccc(-c2c[nH]c3cc(F)ccc23)cc1 (stereo not drawn) [Example 133, 4-(6-fluoro-1H-indol-3-yl)-N-(2-hydroxy-2-(1H-imidazol-2-yl)ethyl)-N-methylbenzene-sulfonamide]",169 nM
9,"Cc1cc(S(=O)(=O)N2CCNCC2)ccc1-c1c[nH]c2cc(F)ccc12 [Example 25, 6-fluoro-3-(2-methyl-4-(piperazin-1-ylsulfonyl)-phenyl)-1H-indole]",1400 nM
10,"Cc1noc(CCNS(=O)(=O)c2ccc(-c3c[nH]c4cc(F)ccc34)cc2)n1 [Example 59, 4-(6-fluoro-1H-indol-3-yl)-N-(2-(3-methyl-1,2,4-oxadiazol-5-yl)-ethyl)benzenesulfonamide]",360 nM
11,"CC(=O)n1cc(-c2ccc(S(=O)(=O)N3CCNCC3)cc2)c2ccc(F)cc21 [Example 70, 1-(6-fluoro-3-(4-(piperazin-1-ylsulfonyl)phenyl)-1H-indol-1-yl)ethanone]",580 nM
12,"O=C(NCCNS(=O)(=O)c1ccc(-c2c[nH]c3cc(F)ccc23)cc1)N1CCNCC1 [Example 109, N-(2-(4-(6-fluoro-1H-indol-3-yl)phenylsulfonamido)ethyl) piperazine-1-carboxamide]",1000 nM
13,"CS(=O)(=O)c1ccc(-c2c[nH]c3cc(F)ccc23)cc1CCO [Example 179, 2-(5-(6-fluoro-1H-indol-3-yl)-2-(methylsulfonyl)phenyl)ethanol]",79 nM
14,"CN(C)CCc1cc(-c2c[nH]c3cc(F)ccc23)ccc1S(N)(=O)=O [Example 141, 2-(2-(dimethylamino)ethyl)-4-(6-fluoro-1H-indol-3-yl)benzenesulfonamide]",295 nM
15,"O=S(=O)(NCc1ncon1)c1ccc(-c2c[nH]c3cc(F)ccc23)cc1 [Example 156, N-((1,2,4-oxadiazol-3-yl)methyl)-4-(6-fluoro-1H-indol-3-yl)benzenesulfonamide]",150 nM
16,"Cn1cc(CN(CCO)S(=O)(=O)c2ccc(-c3c[nH]c4cc(F)ccc34)cc2)cn1 [Example 114, 4-(6-fluoro-1H-indol-3-yl)-N-(2-hydroxyethyl)-N-((1-methyl-1H-pyrazol-4-yl)methyl) benzenesulfonamide]",91000 nM
17,"COc1cc(-c2c[nH]c3cc(F)ccc23)cc(S(=O)(=O)NCCN)c1 [Example 61, N-(2-aminoethyl)-3-(6-fluoro-1H-indol-3-yl)-5-methoxybenzene-sulfonamide]",4300 nM
18,"Cn1cnnc1CNS(=O)(=O)c1ccc(-c2c[nH]c3cc(F)ccc23)cc1 [Example 92, 4-(6-fluoro-1H-indol-3-yl)-N-[(4-methyl-4H-1,2,4-triazol-3-yl)methyl]-benzenesulfonamide]",560 nM
19,"COc1cc(-c2c[nH]c3cc(F)ccc23)ccc1S(=O)(=O)N1CCNCC1 [Example 29, 6-fluoro-3-(3-methoxy-4-(piperazin-1-ylsulfonyl)-phenyl)-1H-indole]",190 nM
20,"O=C(CCNS(=O)(=O)c1ccc(-c2c[nH]c3cc(F)ccc23)cc1)N1CCOCC1 [Example 106, 4-(6-fluoro-1H-indol-3-yl)-N-(3-morpholino-3-oxopropyl)-benzenesulfonamide]",270 nM

# The next lines start with the values.
row,IC50,SMILES
1,96 nM,"O=S(=O)(c1ccc(-c2c[nH]c3cc(F)ccc23)cc1)N1CC[C@@H](O)[C@H](O)C1 [Example 130, (3R,4R)-1-((4-(6-fluoro-1H-indol-3-yl)phenyl)sulfonyl)piperidine-3,4-diol]"
2,365 nM,"CNCCN1CCN(S(=O)(=O)c2ccc(-c3c[nH]c4cc(F)ccc34)cc2)CC1=O [Example 150, 4-((4-(6-fluoro-1H-indol-3-yl)phenyl)sulfonyl)-1-(2-(methylamino)ethyl) piperazin-2-one]"
3,439 nM,"O=C1CN(S(=O)(=O)c2ccc(-c3c[nH]c4cc(F)ccc34)cc2)CCN1CCO [Example 151, 4-((4-(6-fluoro-1H-indol-3-yl)phenyl)sulfonyl)-1-(2-hydroxyethyl)piperazin-2-one]"
4,441 nM,"O=C1CN(S(=O)(=O)c2ccc(-c3c[nH]c4cc(F)ccc34)cc2)CCN1C[C@H](O)CO [Example 147, (S)-1-(2,3-dihydroxypropyl)-4-((4-(6-fluoro-1H-indol-3-yl)phenyl)sulfonyl)piperazin-2-one]"
5,180 nM,"NC(=O)C1CN(S(=O)(=O)c2ccc(-c3c[nH]c4cc(F)ccc34)cc2)C1 [Example 67, 1-((4-(6-fluoro-1H-indol-3-yl)phenyl)sulfonyl)azetidine-3-carboxamide]"
6,220 nM,"C[C@H]1CN(S(=O)(=O)c2ccc(-c3c[nH]c4cc(F)ccc34)cc2)C[C@H](C)N1 [Example 15, 3-(4-(((3S,5S)-3,5-dimethylpiperazin-1-yl)sulfonyl)phenyl)-6-fluoro-1H-indole]"
7,96 nM,"O=S(=O)(c1ccc(-c2c[nH]c3cc(F)ccc23)cc1)N1C[C@@H](O)[C@H](O)C1 [Example 74, (3R,4R)-1-((4-(6-fluoro-1H-indol-3-yl)phenyl)-sulfonyl)pyrrolidine-3,4-diol]"
8,1000 nM,"CS(=O)(=O)N1CCN(S(=O)(=O)c2ccc(-c3c[nH]c4cc(F)ccc34)cc2)CC1 [Example 19, 6-fluoro-3-(4-((4-(methylsulfonyl)piperazin-1-yl)sulfonyl)phenyl)-1H-indole]"
9,93500 nM,"O=S(=O)(c1ccc(-c2c[nH]c3cc(F)ccc23)cc1)N1CCC(O)C1 (stereo not drawn) [Example 124, 1-((4-(6-fluoro-1H-indol-3-yl)phenyl)sulfonyl) pyrrolidin-3-ol]"
10,260 nM,"CN1CCN(C(=O)CCNS(=O)(=O)c2ccc(-c3c[nH]c4cc(F)ccc34)cc2)CC1 [Example 103, 4-(6-fluoro-1H-indol-3-yl)-N-(3-(4-methylpiperazin-1-yl)-3-oxopropyl) benzenesulfonamide]"
